PubChem BioAssay (NCI)
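GI50 = concentration required for 50% inhibition of growth. TGI: concentration producing complete growth inhibition.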

What was measured:
Assay in all cases: inhibition of tumour cell growth, NCI panel, 384-well format
COLO 205 colon = tested on: COLO 205 colon
U251 glioblastoma = tested on: U251 glioblastoma
OVCAR-4 ovarian = tested on: OVCAR-4 ovarian
HCT-15 colon = tested on: HCT-15 colon
HL-60(TB) leukemia = tested on: HL-60(TB) leukemia
HCT-116 colon = tested on: HCT-116 colon
MDA-MB-468 breast = tested on: MDA-MB-468 breast
HT29 colon = tested on: HT29 colon
OVCAR-3 ovarian = tested on: OVCAR-3 ovarian
KM12 colon = tested on: KM12 colon
MALME-3M melanoma = tested on: MALME-3M melanoma
SNB-19 CNS = tested on: SNB-19 CNS
ACHN renal = tested on: ACHN renal
HCC-2998 colon = tested on: HCC-2998 colon
SK-MEL-28 melanoma = tested on: SK-MEL-28 melanoma
SN12C renal = tested on: SN12C renal
NCI/ADR-RES ovarian = tested on: NCI/ADR-RES ovarian
NCI-H23 lung = tested on: NCI-H23 lung
SF-539 CNS = tested on: SF-539 CNS
MOLT-4 leukemia = tested on: MOLT-4 leukemia
SK-OV-3 ovarian = tested on: SK-OV-3 ovarian
NCI-H226 lung = tested on: NCI-H226 lung
NCI-H460 NSCLC = tested on: NCI-H460 NSCLC
NCI-H322M lung = tested on: NCI-H322M lung
LOX IMVI melanoma = tested on: LOX IMVI melanoma
IGROV1 ovarian = tested on: IGROV1 ovarian
NCI-H522 lung = tested on: NCI-H522 lung
UACC-62 melanoma = tested on: UACC-62 melanoma
CCRF-CEM leukemia = tested on: CCRF-CEM leukemia
CAKI-1 renal = tested on: CAKI-1 renal
OVCAR-5 ovarian = tested on: OVCAR-5 ovarian
SK-MEL-2 melanoma = tested on: SK-MEL-2 melanoma
M14 melanoma = tested on: M14 melanoma
SK-MEL-5 melanoma = tested on: SK-MEL-5 melanoma
SW-620 colon = tested on: SW-620 colon
HOP-92 NSCLC = tested on: HOP-92 NSCLC
UACC-257 melanoma = tested on: UACC-257 melanoma
HOP-62 NSCLC = tested on: HOP-62 NSCLC
BT-549 breast = tested on: BT-549 breast
SF-295 CNS = tested on: SF-295 CNS
SR leukemia = tested on: SR leukemia
786-0 renal = tested on: 786-0 renal
OVCAR-8 ovarian = tested on: OVCAR-8 ovarian
DU-145 prostate = tested on: DU-145 prostate
RXF 393 renal = tested on: RXF 393 renal
T-47D breast = tested on: T-47D breast
A498 renal = tested on: A498 renal
MDA-MB-435 melanoma = tested on: MDA-MB-435 melanoma
A549 NSCLC = tested on: A549 NSCLC
UO-31 renal = tested on: UO-31 renal
K-562 leukemia = tested on: K-562 leukemia
MCF7 breast = tested on: MCF7 breast
PC-3 prostate = tested on: PC-3 prostate
RPMI-8226 leukemia = tested on: RPMI-8226 leukemia
TK-10 renal = tested on: TK-10 renal
SF-268 CNS = tested on: SF-268 CNS
MDA-MB-231 breast = tested on: MDA-MB-231 breast

C=C(F)C(=O)N1CCN(c2nc(OC[C@@H]3CCCN3C)nc3c2CCN(c2cccc4cccc(Cl)c24)C3)C[C@@H]1CC#N
GI50 (COLO 205 colon): 564 nM
TGI (COLO 205 colon): 1740 nM
GI50 (U251 glioblastoma): 285 nM
TGI (U251 glioblastoma): 994 nM
GI50 (OVCAR-4 ovarian): 853 nM
TGI (OVCAR-4 ovarian): 2120 nM
GI50 (HCT-15 colon): 568 nM
TGI (HCT-15 colon): 1710 nM
GI50 (HL-60(TB) leukemia): 637 nM
TGI (HL-60(TB) leukemia): 1820 nM
GI50 (HCT-116 colon): 326 nM
TGI (HCT-116 colon): 1350 nM
GI50 (MDA-MB-468 breast): 275 nM
TGI (MDA-MB-468 breast): 1110 nM
GI50 (HT29 colon): 652 nM
TGI (HT29 colon): 1930 nM
GI50 (OVCAR-3 ovarian): 657 nM
TGI (OVCAR-3 ovarian): 1880 nM
GI50 (KM12 colon): 561 nM
TGI (KM12 colon): 1750 nM
GI50 (MALME-3M melanoma): 1330 nM
TGI (MALME-3M melanoma): 2610 nM
GI50 (SNB-19 CNS): 745 nM
TGI (SNB-19 CNS): 1960 nM
GI50 (ACHN renal): 992 nM
TGI (ACHN renal): 2160 nM
GI50 (HCC-2998 colon): 1080 nM
TGI (HCC-2998 colon): 2280 nM
GI50 (SK-MEL-28 melanoma): 1130 nM
TGI (SK-MEL-28 melanoma): 2360 nM
GI50 (SN12C renal): 1200 nM
TGI (SN12C renal): 2440 nM
GI50 (NCI/ADR-RES ovarian): 411 nM
TGI (NCI/ADR-RES ovarian): 1440 nM
GI50 (NCI-H23 lung): < 10 nM
GI50 (SF-539 CNS): 472 nM
TGI (SF-539 CNS): 1520 nM
GI50 (MOLT-4 leukemia): 182 nM
TGI (MOLT-4 leukemia): 384 nM
GI50 (SK-OV-3 ovarian): 1070 nM
TGI (SK-OV-3 ovarian): 2280 nM
GI50 (NCI-H226 lung): 915 nM
TGI (NCI-H226 lung): 2140 nM
GI50 (NCI-H460 NSCLC): 414 nM
TGI (NCI-H460 NSCLC): 1390 nM
GI50 (NCI-H322M lung): 1270 nM
TGI (NCI-H322M lung): 2590 nM
GI50 (LOX IMVI melanoma): 1100 nM
TGI (LOX IMVI melanoma): 2310 nM
GI50 (IGROV1 ovarian): 1290 nM
TGI (IGROV1 ovarian): 2610 nM
GI50 (NCI-H522 lung): 255 nM
TGI (NCI-H522 lung): 861 nM
GI50 (UACC-62 melanoma): 692 nM
TGI (UACC-62 melanoma): 1910 nM
GI50 (CCRF-CEM leukemia): 351 nM
TGI (CCRF-CEM leukemia): 1340 nM
GI50 (CAKI-1 renal): 499 nM
TGI (CAKI-1 renal): 1690 nM
GI50 (OVCAR-5 ovarian): 386 nM
TGI (OVCAR-5 ovarian): 1190 nM
GI50 (SK-MEL-2 melanoma): 484 nM
TGI (SK-MEL-2 melanoma): 1630 nM
GI50 (M14 melanoma): 692 nM
TGI (M14 melanoma): 1920 nM
GI50 (SK-MEL-5 melanoma): 564 nM
TGI (SK-MEL-5 melanoma): 1810 nM
GI50 (SW-620 colon): 1120 nM
TGI (SW-620 colon): 2350 nM
GI50 (HOP-92 NSCLC): 341 nM
TGI (HOP-92 NSCLC): 931 nM
GI50 (UACC-257 melanoma): 749 nM
TGI (UACC-257 melanoma): 2020 nM
GI50 (HOP-62 NSCLC): < 10 nM
TGI (HOP-62 NSCLC): 1390 nM
GI50 (BT-549 breast): 1210 nM
TGI (BT-549 breast): 2450 nM
GI50 (SF-295 CNS): 1480 nM
TGI (SF-295 CNS): 2810 nM
GI50 (SR leukemia): 134 nM
TGI (SR leukemia): 512 nM
GI50 ([…]-0 renal): 509 nM
TGI (786-0 renal): 1780 nM
GI50 (OVCAR-8 ovarian): 405 nM
TGI (OVCAR-8 ovarian): 1360 nM
GI50 (DU-145 prostate): 1210 nM
TGI (DU-145 prostate): 2480 nM
GI50 (RXF 393 renal): 379 nM
TGI (RXF 393 renal): 1560 nM
GI50 (T-47D breast): 430 nM
TGI (T-47D breast): 1900 nM
GI50 (A498 renal): 471 nM
TGI (A498 renal): 1590 nM
GI50 (MDA-MB-435 melanoma): 1270 nM
TGI (MDA-MB-435 melanoma): 2550 nM
GI50 (A549 NSCLC): 561 nM
TGI (A549 NSCLC): 1840 nM
GI50 (UO-31 renal): 1150 nM
TGI (UO-31 renal): 2370 nM
GI50 (K-562 leukemia): 253 nM
TGI (K-562 leukemia): 1320 nM
GI50 (MCF7 breast): 1190 nM
TGI (MCF7 breast): 2430 nM
GI50 (PC-3 prostate): 723 nM
TGI (PC-3 prostate): 2010 nM
GI50 (RPMI-8226 leukemia): 165 nM
TGI (RPMI-8226 leukemia): 491 nM
GI50 (TK-10 renal): 925 nM
TGI (TK-10 renal): 2160 nM
GI50 (SF-268 CNS): 542 nM
TGI (SF-268 CNS): 1660 nM
GI50 (MDA-MB-231 breast): 417 nM
TGI (MDA-MB-231 breast): 1420 nM
